For the experiment, the system named is spontaneous SWDs. The experiment can be described thus: Spontaneous spike-wave discharges (SWDs) in Long-Evans rats. Type of experiment: in vivo. The following applies: 0.5 ml, 28 mg/kg, i.p.; vs saline; n=8. The procedure:
All rats were kept in a sound-attenuated room under a 12:12 hour light-dark cycle (07:00-19:00 lights on) with food and water provided ad libitum. The experimental procedures were reviewed and approved by the Institutional Animal Care and Use Committee. Briefly, the recording electrodes were implanted under pentobarbital anesthesia (60 mg/kg, i.p.). Subsequently, the rat was placed in a standard stereotaxic apparatus. In total, six stainless steel screws were driven bilaterally into the skull overlying the frontal (A +2.0, L 2.0 with reference to the bregma) and occipital (A −6.0, L 2.0) regions of the cortex to record cortical field potentials. A ground electrode was implanted 2 mm caudal to lambda. Dental cement was applied to fasten the connection socket to the surface of the skull. Following suturing to complete the surgery, animals were given an antibiotic (chlortetracycline) and housed individually in cages for recovery. […] In this preliminary animal test, we compared effect among saline, ethosuximide (ESM), ESM-loaded nanoparticles (ESM-Fe3O4@SiO2) and ESM-containing chip (ESM-Chip) in spontaneous SWDs of Long-Evans rats. […] In this experiment, we recorded 1-hour spontaneous brain activity before the treatment (baseline) and another 1-hour spontaneous brain activity 30 minutes after the treatment. […]

With `CCC1(C)CC(=O)NC1=O` (centres unmarked) [ESM, ethosuximide], the SWD number result was “significantly decreased” and the “total SWD duration” value is “significantly decreased”.

These data come from US20110094885A1, “Flexible Drug Delivery Chip, its Fabrication Method and Uses Thereof” (NATIONAL CHIAO TUNG UNIVERSITY, priority 2009, published 2011).
